Laboratory results from article PMC6604423, “A New Flavanone as a Potent Antioxidant Isolated from Chromolaena odorata L. Leaves” (Evidence-based Complementary and Alternative Medicine : eCAM, 2019).
Like-named read-outs stand apart in the source and are kept apart here.

Tests used:
[1] = target: α-glucosidase rat intestine enzyme; test: α-Glucosidase inhibitory activity assay (rat intestinal acetone powder, maltose substrate); assay type: biochemical; settings: 10 mM maltose, pH 6.9, 37°C, 10 min, mean ± SD, triplicate
Experimental: First, rat intestinal acetone powder (1 g) was suspended in 30 mL of normal saline. This suspended solution was sonicated for five minutes at 4°C. After centrifugation (12,000 rpm, 30 minutes, 4°C), the resulting supernatant was used for the assay. Briefly, a mixture of 10 μL samples, 30 μL of 0.1 M phosphate buffer (pH 6.9), 20 μL of 10 mM maltose, 80 μL glucose kit, and 20 μL of enzyme supernatant were incubated in 96-well plates at 37°C for 10 minutes. Acarbose was used as a standard. The absorbance was recorded at 490 nm by microplate reader (Biotek ELx800UV). The inhibitory activity was determined from the formula as follows:(2) Inhibition%=Ablank−Asample/Ablank×100 where Ablank = Aenzyme reaction − Ablank of enzyme reaction and Asample = Asample reaction − Ablank of sample reaction.

[2] = DPPH radical scavenging assay; settings: 20 min, room temperature, 517 nm; mean ± SD, triplicate
Experimental: First, DPPH solution (6 × 10^−5 M) was separated by dissolving 2.37 mg of DPPH in 100 mL of methanol to obtain a working solution. […] Finally, the mixed sample solution was incubated for 20 minutes at room temperature. Then, the absorbance (As) of the reaction mixture was measured by UV-Vis spectrophotometer at 517 nm. The mixed solution between methanol and the working solution was used as blank to give the blank absorbance (Ab). Gallic acid was used as a standard. The inhibitory activity was calculated by (1).

[3] = ABTS radical cation scavenging assay; settings: for ABTS IC50: 4 min, room temperature, 734 nm, mean ± SD, triplicate; for IC50: same result expressed in μM
Experimental: Free radical scavenging by ABTS radical was based on the method described previously by us. […] Those two solutions were mixed and incubated for 12-16 hours to obtain ABTS radical cation solution which is a dark blue solution. It was added with ± 274 mL of ethanol to give an absorbance of 0.7 ± 0.02 units at 734 nm for making a working solution. 1 mL of working solution was mixed with 10 μL of samples (n-hexane, dichloromethane, ethyl acetate, methanol, and water extracts) at maximum dissolved concentration in DMSO and mixed well. Finally, the mixed sample solution was incubated for four minutes at room temperature; then, the absorbance (As) of the reaction mixture was measured by UV-Vis spectrophotometers at 734 nm. The mixed solution between DMSO and the working solution was used as blank to give the blank absorbance (Ab). Trolox was used as a standard. […] The IC50 value was expressed as a quantity of an extract inhibitory concentration against a half of ABTS radicals.

[4] = in vitro, C. odorata leaves; cited from earlier work

In the case of `C[C@H]1O[C@H](O[C@H]2[C@H](O)[C@@H](O)[C@@H](O[C@H]3[C@H](O)[C@@H](O)C(O)O[C@@H]3CO)O[C@@H]2CO)[C@H](O)[C@@H](O)[C@@H]1N[C@H]1C=C(CO)[C@@H](O)[C@H](O)[C@H]1O` (some centres unmarked) [Acarbose, acarbose], the “α-Glucosidase inhibition IC50” value [1] is reported as 7.67 ± 1.86 mg/L.

For `O=C(O)c1cc(O)c(O)c(O)c1` [Gallic acid, gallic acid], the “DPPH IC50” value [2] was 1.11 ± 0.42 mg/L.

For `COc1cc(O)c2c(c1)OC(c1cc(O)ccc1OC)CC2=O` (centres unmarked) [Odoratenin (1), 5,3'-dihydroxy-7,6'-dimethoxyflavanone], the “α-Glucosidase inhibition IC50” value [1] was over 62.5 mg/L, the “ABTS IC50” value [3] was 7.51 ± 1.57 mg/L and the IC50 [3] was 23.7 µM.

In the case of `Cc1c(C)c2c(c(C)c1O)CCC(C)(C(=O)O)O2` (centres unmarked) [Trolox, 6-hydroxy-2,5,7,8-tetramethylchromen-2-carboxylate acid], the “ABTS IC50” value [3] is reported as 7.84 ± 0.45 mg/L and the IC50 [3] is reported as 31.3 µM.

For `O=C1O[C@H]([C@@H](O)CO)C(O)=C1O` [ascorbic acid], the “ABTS IC50” value [4] is given as 1000 mg/L.
